Experimental data as given in US8287923B2, “Compositions and methods for treating immune disorders” (priority 2005, dated 2012).

Tested on: normal human epidermal keratinocytes (NHEK)
Test: Affymetrix gene array analysis, autoantigen gene expression
Type: cell-based
Method: The gene array experiment was performed at the Core Facility of Genomics of the Medical College of Georgia, according to the instructions of the manufacturer (Affymetrix, Santa Clara, Calif.). Briefly, NHEK and OSC2 cells treated with 100 μM EGCG for different time period were extracted for total RNA, the RNA was processed for probes and hybridized with a cDNA microarray (HuG133A, Affymetrix) which represents 22,283 human series. DNA chips were read with a Hewlett-Packard GeneArray Scanner at a resolution of […] and were analyzed with the GeneSpring software (Silicon Genetics, Redwood City, Calif.). Details of this analysis will be published elsewhere (Hsu et al., manuscript in preparation).
Gene assays provide a valuable tool for studying the broad response of cells to agents, and we have used this approach to compare the differential effects of GTPP on gene expression in NHEK and human oral squamous carcinoma cells (Hsu, et al, manuscript in preparation). […] See also Hsu, S. et al. (2005) JPET 315:805-811, which is incorporated by reference in its entirety.

O=C(O[C@@H]1Cc2c(O)cc(O)cc2O[C@@H]1c1cc(O)c(O)c(O)c1)c1cc(O)c(O)c(O)c1 [EGCG, (−)-epigallocatechin-3-gallate]
Ku autoantigen, 80 kDa (208642_s_at) expression, normalized (24 h, 100 μM): 0.73 | Ku autoantigen, 80 kDa (208643_s_at) expression, normalized (24 h, 100 μM): 0.77 | Nuclear antigen SP100 (202863_at) expression, normalized (24 h, 100 μM): 0.36 | Nuclear antigen SP100 (202864_s_at) expression, normalized (24 h, 100 μM): 0.08 | Nuclear antigen SP10075 kDa (213226_at) expression, normalized (24 h, 100 μM): 0.50 | RNA polymerase 1 (202692_s-at) expression, normalized (24 h, 100 μM): 0.55 | SS-B/La (201138_s_at) expression, normalized (24 h, 100 μM): 0.27 | SS-B/La (201139_s_at) expression, normalized (24 h, 100 μM): 0.26 | centromere protein C1 (20473_at) expression, normalized (24 h, 100 μM): 0.94 | coilin (203653_s_at) expression, normalized (24 h, 100 μM): 0.79 | coilin (203654_s_at) expression, normalized (24 h, 100 μM): 0.79 | fodrin-α (208611_s_at) expression, normalized (24 h, 100 μM): 0.42 | fodrin-α (215235_s_at) expression, normalized (24 h, 100 μM): 0.71 | golgin-67 (208797_s_at) expression, normalized (24 h, 100 μM): 0.29 | golgin-67 (208798_x_at) expression, normalized (24 h, 100 μM): 0.31 | golgin-67 (210425_x_at) expression, normalized (24 h, 100 μM): 0.31 | golgin-67 (213650_at) expression, normalized (24 h, 100 μM): 0.72 | scleroderma autoantigen 1, 75 kDa (213226_at) expression, normalized (24 h, 100 μM): 0.50 | spectrin-β non-erythrocyctic 1 (212071_s_at) expression, normalized (24 h, 100 μM): 0.72 | thyroid autoantigen 70 kDa (Ku antigen) (200792_at) expression, normalized (24 h, 100 μM): 0.79 | ADPRT [poly(ADP)-ribose polymerase] expression (24 h, 100 μM, vs time zero): 0.85 fold | ANAP12 expression (24 h, 100 μM, vs time zero): 0.198 fold | ANXA11 expression (24 h, 100 μM, vs time zero): 1.946 fold | CALR expression (24 h, 100 μM, vs time zero): 1.528 fold | CBARA1 expression (24 h, 100 μM, vs time zero): 0.721 fold | CENPA expression (24 h, 100 μM, vs time zero): 0.673 fold | CENPB expression (24 h, 100 μM, vs time zero): 0.721 fold | CENPC1 expression (24 h, 100 μM, vs time zero): 0.936 fold | CHD4 expression (24 h, 100 μM, vs time zero): 0.84 fold | COL17A1 expression (24 h, 100 μM, vs time zero): 0.684 fold | CTDSP1 expression (24 h, 100 μM, vs time zero): 1.39 fold | CTDSP2 expression (24 h, 100 μM, vs time zero): 1.71 fold | CTDSPL expression (24 h, 100 μM, vs time zero): 2.10 fold | DLAT expression (24 h, 100 μM, vs time zero): 0.751 fold | EPPK1 expression (24 h, 100 μM, vs time zero): 0.889 fold | FBL expression (24 h, 100 μM, vs time zero): 0.69 fold | FLJ31657 expression (24 h, 100 μM, vs time zero): 0.959 fold | FLNB (Filamin B, β) expression (24 h, 100 μM, vs time zero): 0.249 fold | FLNB (Filamin B, γ) expression (24 h, 100 μM, vs time zero): 0.243 fold | G22P1 (Thyroid autoantigen, 70 kDa, Ku antigen) expression (24 h, 100 μM, vs time zero): 0.792 fold | GMEB2 expression (24 h, 100 μM, vs time zero): 0.745 fold | GOLGA1 expression (24 h, 100 μM, vs time zero): 0.9 fold | GOLGA2 expression (24 h, 100 μM, vs time zero): 0.949 fold | GOLGA3 expression (24 h, 100 μM, vs time zero): 0.419 fold | GOLGA4 expression (24 h, 100 μM, vs time zero): 0.664 fold | GOLGA5 expression (24 h, 100 μM, vs time zero): 1.494 fold | GOLGB1 expression (24 h, 100 μM, vs time zero): 0.688 fold | HARS expression (24 h, 100 μM, vs time zero): 0.72 fold | HARSL expression (24 h, 100 μM, vs time zero): 1.00 fold | HSA6591 expression (24 h, 100 μM, vs time zero): 0.562 fold | HUMAUANTIG expression (24 h, 100 μM, vs time zero): 0.517 fold | IMP-2 expression (24 h, 100 μM, vs time zero): 0.665 fold | LAD1 expression (24 h, 100 μM, vs time zero): 0.553 fold | LMO4 expression (repeat 1) (24 h, 100 μM, vs time zero): 1.011 fold | LMO4 expression (repeat 2) (24 h, 100 μM, vs time zero): 0.659 fold | MGC5560 expression (repeat 1) (24 h, 100 μM, vs time zero): 0.81 fold | MGC5560 expression (repeat 2) (24 h, 100 μM, vs time zero): 0.552 fold | NS (Nucleostemin) expression (24 h, 100 μM, vs time zero): 0.814 fold | PDHB expression (24 h, 100 μM, vs time zero): 0.818 fold | PDX1 expression (24 h, 100 μM, vs time zero): 0.903 fold | PMSCL1, 75 kDa expression (24 h, 100 μM, vs time zero): 0.496 fold | PMSCL2 expression (24 h, 100 μM, vs time zero): 0.717 fold | POLR1B expression (24 h, 100 μM, vs time zero): 1.04 fold | POLR1D expression (24 h, 100 μM, vs time zero): 1.31 fold | POLR2A expression (repeat 1) (24 h, 100 μM, vs time zero): 1.02 fold | POLR2A expression (repeat 2) (24 h, 100 μM, vs time zero): 1.17 fold | POLR2B expression (24 h, 100 μM, vs time zero): 0.74 fold | POLR2C expression (24 h, 100 μM, vs time zero): 1.66 fold | POLR2D expression (24 h, 100 μM, vs time zero): 0.29 fold | POLR2E expression (24 h, 100 μM, vs time zero): 0.39 fold | POLR2F expression (24 h, 100 μM, vs time zero): 0.80 fold | POLR2G expression (24 h, 100 μM, vs time zero): 0.89 fold | POLR2H expression (24 h, 100 μM, vs time zero): 1.15 fold | POLR3C expression (24 h, 100 μM, vs time zero): 0.49 fold | POLR3G expression (24 h, 100 μM, vs time zero): 0.47 fold | PSME3 expression (24 h, 100 μM, vs time zero): 0.421 fold | RALY expression (24 h, 100 μM, vs time zero): 0.612 fold | SART1 expression (24 h, 100 μM, vs time zero): 0.98 fold | SLC25A16 expression (24 h, 100 μM, vs time zero): 1.144 fold | SNRP70 expression (24 h, 100 μM, vs time zero): 0.51 fold | SNRPA expression (24 h, 100 μM, vs time zero): 0.32 fold | SNRPB2 expression (24 h, 100 μM, vs time zero): 0.82 fold | SNRPB expression (repeat 1) (24 h, 100 μM, vs time zero): 0.52 fold | SNRPB expression (repeat 2) (24 h, 100 μM, vs time zero): 0.42 fold | SNRPC expression (24 h, 100 μM, vs time zero): 1.12 fold | SNRPD1 expression (repeat 1) (24 h, 100 μM, vs time zero): 0.425 fold | SNRPD1 expression (repeat 2) (24 h, 100 μM, vs time zero): 0.517 fold | SOX13 expression (24 h, 100 μM, vs time zero): 1.582 fold | SP100 expression (repeat 1) (24 h, 100 μM, vs time zero): 0.356 fold | SP100 expression (repeat 2) (24 h, 100 μM, vs time zero): 0.079 fold | SP110 expression (repeat 1) (24 h, 100 μM, vs time zero): 0.978 fold | SP110 expression (repeat 2) (24 h, 100 μM, vs time zero): 0.654 fold | SP110 expression (repeat 3) (24 h, 100 μM, vs time zero): 0.621 fold | SPTAN1 (α-fodrin) expression (repeat 1) (24 h, 100 μM, vs time zero): 0.42 fold | SPTAN1 (α-fodrin) expression (repeat 2) (24 h, 100 μM, vs time zero): 0.71 fold | SPTBN expression (24 h, 100 μM, vs time zero): 0.72 fold | SSA2 (autoantigen SS-A/Ro) expression (repeat 2) (24 h, 100 μM, vs time zero): 0.88 fold | SSA2 expression (repeat 1) (24 h, 100 μM, vs time zero): 1.17 fold | SSA2 expression (repeat 3) (24 h, 100 μM, vs time zero): 1.556 fold | SSA2 expression (repeat 4) (24 h, 100 μM, vs time zero): 0.94 fold | SSB (autoantigen La) expression (repeat 1) (24 h, 100 μM, vs time zero): 0.273 fold | SSB (autoantigen La) expression (repeat 2) (24 h, 100 μM, vs time zero): 0.257 fold | SSNA1 expression (24 h, 100 μM, vs time zero): 0.943 fold | SSSCA1 expression (24 h, 100 μM, vs time zero): 1.228 fold | STRN3 expression (24 h, 100 μM, vs time zero): 0.759 fold | TOP1 expression (repeat 1) (24 h, 100 μM, vs time zero): 0.12 fold | TOP1 expression (repeat 2) (24 h, 100 μM, vs time zero): 0.43 fold | UBTF expression (24 h, 100 μM, vs time zero): 0.546 fold | XRCC5 (Ku autoantigen, 80 kDa) expression (repeat 1) (24 h, 100 μM, vs time zero): 0.771 fold | XRCC5 (Ku autoantigen, 80 kDa) expression (repeat 2) (24 h, 100 μM, vs time zero): 0.725 fold | dJ963E22.1 expression (24 h, 100 μM, vs time zero): 0.88 fold | α-NAC expression (24 h, 100 μM, vs time zero): 0.469 fold | rapid initial increase of nuclear antigen SP100 and scleroderma autoantigen 1 mRNA (followed by a 2-fold or greater decrease): 2-4 fold | decrease in mRNA levels of RNA polymerase I, SS-B/La, alpha-fodrin and golgin-67 (rapid (0.5-2 hr initiation) and persistent during the 24 hr period): ≥ 2 fold | 60 kDa SS-A/Ro mRNA level (time course up to 24 hr): did not decline significantly
